Measurements from patent publication US20260028654A1, “BIOTECHNOLOGICAL PRODUCTION OF MACROCYCLIC LACTONES” (SYMRISE AG, priority 2022, published 2026).

Experiments:
[1] = tested on: cyclododecanone monooxygenase (CDMO); assay: Spectro-photometric activity assay (NADPH consumption at 340 nm), cell-free lysate containing CDMO; assay type: biochemical, Rhodococcus species; conditions: 0.25 mM Globanone, 0.3 mM NADPH, pH 9.0, 30° C.
Description: (§1) The genes for the two Baeyer-Villiger Monooxygenases (BVMOs) cyclopentadecanone monooxygenase from a Pseudomonas species (CPDMO, Iwaki, H. et al., Appl. Environ. Microbiol. (2006), 72 (4): 2707-2720) and cyclododecanone monooxygenase from a Rhodococcus species (CDMO, Kostichka, K. et al., J. Bacteriol. (2001), 183 (21): 6478-6486) were cloned using standard molecular biology tools. For recombinant enzyme production in Escherichia coli an L-arabinose inducible vector derived from a pBAD plasmid carrying a kanamycin/neomycin resistance gene was used in an E. coli K-12 strain, in which the Larabinose catabolism is disrupted. Glycerol stocks were used to inoculate 5 ml overnight cultures (LB, 100 μg/ml neomycin). […]
(§2) Protein concentrations of the lysates were determined to calculate specific activities (Protein determination by Bradford). The concentrations of total protein in the cell-free extracts (CFEs) were determined using a modified protein-dye binding method as described by Bradford in Anal. Biochem. 72: 248-254 (1976).
(§3) To determine if the two BVMOs were active on Globanone® a spectro-photometric activity assay was applied. The assay makes use of the strong absorbance decrease at 340 nm upon consumption of the NADPH cofactor. […] The decrease of absorbance was followed for 3 minutes before substrate addition to detect potential, unspecific NADPH oxidation. […]

[2] = tested on: cyclopentadecanone monooxygenase (CPDMO); assay: Spectro-photometric activity assay (NADPH consumption at 340 nm), cell-free lysate containing CPDMO; assay type: biochemical, Pseudomonas species; conditions: 0.25 mM Globanone, 0.3 mM NADPH, pH 9.0, 30° C.
Description: as §1, §2, §3

## O=C1CCCCCCC=CCCCCCCC1 [Globanone®]
[1]; E. coli cell-free lysate containing CDMO (18.6 mg/ml protein)
  volumetric activity: 3.71 U/ml
[1]; per mg total cell-free lysate protein, CDMO lysate
  specific activity: 0.20 U/mg
[2]; E. coli cell-free lysate containing CPDMO (9.9 mg/ml protein)
  volumetric activity: 0.04 U/ml
[2]; per mg total cell-free lysate protein, CPDMO lysate
  specific activity: 0.004 U/mg
